Like-named read-outs stand apart in the source and are kept apart here.
Columns and labels:
[1] = system: MP3 strain of D. immitis; details: cited from earlier work
[2] = system: JYD-34 isolate of Dirofilaria immitis; assay: Efficacy of ivermectin and emodepside, separately and in combination, against induced Dirofilaria immitis infection in dogs (live worm counts at necropsy); details: in vivo, po
[3] = normal prophylaxis regimens, recent reports

Molecule: milbemycin oxime
- Efficacy against MP3 strain [1, 3]: incomplete efficacy

Molecule: CC[C@H](C)[C@H]1O[C@]2(CC[C@@H]1C)C[C@@H]1C[C@@H](C/C=C(\C)[C@@H](O[C@H]3C[C@H](OC)[C@@H](O[C@H]4C[C@H](OC)[C@@H](O)[C@H](C)O4)[C@H](C)O3)[C@@H](C)/C=C/C=C3\CO[C@@H]4[C@H](O)C(C)=C[C@@H](C(=O)O1)[C@]34O)O2 [ivermectin oral solution, ivermectin]
- Efficacy [2]: Less than 50%
- Efficacy against MP3 strain ([1]; in vivo): incomplete efficacy

Molecule: CO[C@H]1C[C@H](O[C@@H]2/C(C)=C/C[C@@H]3C[C@@H](C[C@]4(CC[C@H](C)[C@@H](C5CCCCC5)O4)O3)OC(=O)[C@@H]3C=C(C)/C(=N/O)[C@H]4OC/C(=C\C=C\[C@@H]2C)[C@]43O)O[C@@H](C)[C@@H]1O [selamectin]
- Efficacy against MP3 strain [1, 3]: incomplete efficacy
